Experimental data: ChEMBL document CHEMBL1201862, “PubChem BioAssay data set” (2004)
“And” between values parts separate entries of the source, which are not always exact repeats. Equal values may be shown once.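 Cells were grown in 96-well plates and exposed to each compound for 48 hours at five concentrations; endpoints were interpolated linearly between bracketing concentrations, or set to the highest concentration if not reached. GI50 marks 50% less growth.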 The source made the active and inactive calls. Cut-off read from the data, not from the text of the source: active = GI50 up to about 1.1 µM and inactive = higher. Peptide text beside a SMILES is read from it. * marks the point of attachment. Fmoc = O=C(OCC1c2ccccc2-c2ccccc21)*; Boc = CC(C)(C)OC(=O)*; OtBu = CC(C)(C)O*

Tests used:
Assay in all cases: growth of human tumour cells (NCI), 48 h
[1] = tested on: UO-31
[2] = tested on: OVCAR-5
[3] = tested on: HCT-15
[4] = tested on: SK-MEL-2
[5] = tested on: A498
[6] = tested on: NCI-H23
[7] = tested on: NCI-H226
[8] = tested on: MDA-MB-435
[9] = tested on: HOP-62
[10] = tested on: IGROV-1
[11] = tested on: MCF7
[12] = tested on: Malme-3M
[13] = tested on: SF-295
[14] = tested on: SK-OV-3
[15] = tested on: OVCAR-3
[16] = tested on: DU-145
[17] = tested on: SK-MEL-28
[18] = tested on: SR
[19] = tested on: BT-549
[20] = tested on: K562
[21] = tested on: MDA-MB-231
[22] = tested on: UACC-62
[23] = tested on: PC-3
[24] = tested on: CAKI-1
[25] = tested on: ACHN
[26] = tested on: 786-0
[27] = tested on: SNB-75
[28] = tested on: RPMI-8226
[29] = tested on: HCT-116
[30] = tested on: TK-10
[31] = tested on: SF-268
[32] = tested on: SNB-19
[33] = tested on: SN12C
[34] = tested on: OVCAR-4
[35] = tested on: UACC-257
[36] = tested on: COLO 205
[37] = tested on: CCRF-CEM
[38] = tested on: HT-29
[39] = tested on: HOP-92
[40] = tested on: SF-539
[41] = tested on: HL-60
[42] = tested on: EKVX
[43] = tested on: A549
[44] = tested on: U-251
[45] = tested on: OVCAR-8
[46] = tested on: NCI/ADR-RES
[47] = tested on: Hs-578T
[48] = tested on: RXF 393
[49] = tested on: LOX IMVI
[50] = tested on: NCI-H522
[51] = tested on: T47D
[52] = tested on: MOLT-4
[53] = tested on: SK-MEL-5
[54] = tested on: M14
[55] = tested on: KM12
[56] = tested on: HCC 2998
[57] = tested on: SW-620
[58] = tested on: NCI-H460
[59] = tested on: MDA-N

## O=C1CC2(CCN(CC3COc4ccccc4O3)CC2)C(=O)N1N1CCCCCC1 (centres undefined)
[1]
  GI50: > 100 µM (inactive)
[2]
  GI50: 48.5 µM (inactive)
[3]
  GI50: > 100 µM
[4]
  GI50: > 100 µM (inactive)
[5]
  GI50: > 100 µM (inactive)
[6]
  GI50: 16.9 µM (inactive)
[7]
  GI50: 51.9 µM (inactive)
[8]
  GI50: 40 µM (inactive)
[9]
  GI50: > 100 µM (inactive)
[10]
  GI50: > 100 µM (inactive)
[11]
  GI50: 37.2 µM (inactive)
[12]
  GI50: 94.4 µM (inactive)
[13]
  GI50: 71.1 µM (inactive)
[14]
  GI50: > 100 µM (inactive)
[15]
  GI50: > 100 µM (inactive)
[16]
  GI50: 32.7 µM (inactive)
[17]
  GI50: > 100 µM (inactive)
[18]
  GI50: > 100 µM (inactive)
[19]
  GI50: 61.7 µM (inactive)
[20]
  GI50: 15.6 µM (inactive)
[21]
  GI50: > 100 µM (inactive)
[22]
  GI50: > 100 µM (inactive)
[23]
  GI50: 27.5 µM (inactive)
[24]
  GI50: > 100 µM (inactive)
[25]
  GI50: 73.5 µM (inactive)
[26]
  GI50: > 100 µM (inactive)
[27]
  GI50: 76.4 µM (inactive)
[28]
  GI50: 59.8 µM (inactive)
[29]
  GI50: 52.6 µM (inactive)
[30]
  GI50: > 100 µM (inactive)
[31]
  GI50: > 100 µM (inactive)
[32]
  GI50: > 100 µM (inactive)
[33]
  GI50: > 100 µM (inactive)
[34]
  GI50: 33.6 µM (inactive)
[35]
  GI50: 13.9 µM (inactive)
[36]
  GI50: 35.9 µM (inactive)
[37]
  GI50: 29.4 µM (inactive)
[38]
  GI50: 21.4 µM (inactive)
[39]
  GI50: 87.3 µM (inactive)
[40]
  GI50: > 100 µM (inactive)
[41]
  GI50: 17.6 µM (inactive)
[42]
  GI50: > 100 µM (inactive)
[43]
  GI50: > 100 µM (inactive)
[44]
  GI50: > 100 µM (inactive)
[45]
  GI50: 64.6 µM (inactive)
[46]
  GI50: 52.7 µM (inactive)
[47]
  GI50: 44.1 µM (inactive)
[48]
  GI50: 64.6 µM (inactive)
[49]
  GI50: 28.9 µM (inactive)
[50]
  GI50: 78.5 µM (inactive)
[51]
  GI50: 33.7 µM (inactive)
[52]
  GI50: 20.7 µM (inactive)
[53]
  GI50: 22.7 µM (inactive)
[54]
  GI50: 69.3 µM (inactive)

## O=C(NCCCCNCCCNC(=O)C(F)(F)F)C(F)(F)F
[1]
  GI50: > 100 µM (inactive)
[2]
  GI50: > 100 µM (inactive)
[3]
  GI50: > 100 µM
[4]
  GI50: > 100 µM (inactive)
[5]
  GI50: > 100 µM (inactive)
[6]
  GI50: > 100 µM (inactive)
[7]
  GI50: > 100 µM (inactive)
[8]
  GI50: > 100 µM (inactive)
[9]
  GI50: > 100 µM (inactive)
[10]
  GI50: > 100 µM (inactive)
[11]
  GI50: > 100 µM (inactive)
[13]
  GI50: 32.6 µM (inactive)
[14]
  GI50: 26.8 µM (inactive)
[15]
  GI50: > 100 µM (inactive)
[16]
  GI50: > 100 µM (inactive)
[55]
  GI50: > 100 µM (inactive)
[17]
  GI50: > 100 µM (inactive)
[18]
  GI50: > 100 µM (inactive)
[19]
  GI50: > 100 µM (inactive)
[20]
  GI50: > 100 µM (inactive)
[21]
  GI50: > 100 µM (inactive)
[22]
  GI50: > 100 µM (inactive)
[23]
  GI50: > 100 µM (inactive)
[24]
  GI50: > 100 µM (inactive)
[25]
  GI50: > 100 µM (inactive)
[26]
  GI50: > 100 µM (inactive)
[27]
  GI50: > 100 µM (inactive)
[28]
  GI50: > 100 µM (inactive)
[29]
  GI50: > 100 µM (inactive)
[30]
  GI50: > 100 µM (inactive)
[31]
  GI50: > 100 µM (inactive)
[32]
  GI50: > 100 µM (inactive)
[33]
  GI50: > 100 µM (inactive)
[34]
  GI50: > 100 µM (inactive)
[35]
  GI50: > 100 µM (inactive)
[36]
  GI50: > 100 µM (inactive)
[37]
  GI50: > 100 µM (inactive)
[38]
  GI50: > 100 µM (inactive)
[39]
  GI50: > 100 µM (inactive)
[40]
  GI50: > 100 µM (inactive)
[41]
  GI50: 5.07 µM (inactive)
[42]
  GI50: > 100 µM (inactive)
[43]
  GI50: > 100 µM (inactive)
[44]
  GI50: > 100 µM (inactive)
[45]
  GI50: > 100 µM (inactive)
[46]
  GI50: > 100 µM (inactive)
[47]
  GI50: > 100 µM (inactive)
[48]
  GI50: > 100 µM (inactive)
[50]
  GI50: > 100 µM (inactive)
[51]
  GI50: > 100 µM (inactive)
[56]
  GI50: > 100 µM (inactive)
[52]
  GI50: > 100 µM (inactive)
[57]
  GI50: > 100 µM (inactive)
[53]
  GI50: > 100 µM (inactive)
[58]
  GI50: > 100 µM (inactive)
[54]
  GI50: > 100 µM (inactive)

## CC(C)(C)OC(=O)CCC(NC(=O)OCC1c2ccccc2-c2ccccc21)C(=O)NC(Cc1c[nH]c2ccccc12)C(=O)NC(CCCCNC(=O)OC(C)(C)C)C(=O)N1CCCC1C(=O)NCC(N)=O (centres undefined) (Fmoc-E(OtBu)WK(Boc)PG-NH2; configuration not given here)
[4]
  GI50: 18.2 µM (inactive) and 19.7 µM (inactive)
[10]
  GI50: 31.2 µM (inactive) and 16 µM (inactive)
[11]
  GI50: 24.9 µM (inactive) and 26.5 µM (inactive)
[12]
  GI50: 19.7 µM (inactive) and 31 µM (inactive)
[13]
  GI50: 34.8 µM (inactive) and 26.2 µM (inactive)
[15]
  GI50: 19.4 µM (inactive) and 16.8 µM (inactive)
[17]
  GI50: 48.1 µM (inactive) and 43.4 µM (inactive)
[18]
  GI50: 26.5 µM (inactive) and 41.7 µM (inactive)
[19]
  GI50: 16 µM (inactive) and 19.5 µM (inactive)
[20]
  GI50: 30.1 µM (inactive) and 42.5 µM (inactive)
[21]
  GI50: 15.6 µM (inactive) and 12.6 µM (inactive)
[22]
  GI50: 15 µM (inactive) and 17 µM (inactive)
[25]
  GI50: 17.7 µM (inactive) and 16.4 µM (inactive)
[26]
  GI50: 20.7 µM (inactive) and 17.5 µM (inactive)
[27]
  GI50: 23.3 µM (inactive) and 16 µM (inactive)
[28]
  GI50: 17.4 µM (inactive) and 34.4 µM (inactive)
[32]
  GI50: 19.6 µM (inactive) and 26.9 µM (inactive)
[34]
  GI50: 12.9 µM (inactive) and 17.2 µM (inactive)
[38]
  GI50: > 100 µM (inactive) and 58.3 µM (inactive)
[39]
  GI50: 18.5 µM (inactive) and 17.6 µM (inactive)
[40]
  GI50: 35.6 µM (inactive) and 63.7 µM (inactive)
[59]
  GI50: 17.8 µM (inactive) and 25.5 µM (inactive)
[44]
  GI50: 17.3 µM (inactive) and 17.2 µM (inactive)
[45]
  GI50: 34.6 µM (inactive) and 17.8 µM (inactive)
[47]
  GI50: 17.3 µM (inactive) and 28.4 µM (inactive)
[48]
  GI50: 22.2 µM (inactive) and 15 µM (inactive)
[49]
  GI50: 22.5 µM (inactive) and 12.2 µM (inactive)
[50]
  GI50: 1.62 µM (inactive)
[51]
  GI50: 63.2 µM (inactive) and 52.5 µM (inactive)
[56]
  GI50: 66.7 µM (inactive) and 34.8 µM (inactive)
[52]
  GI50: 28.2 µM (inactive) and 24.4 µM (inactive)
[53]
  GI50: 32 µM (inactive) and 16.2 µM (inactive)
[58]
  GI50: 25.9 µM (inactive) and 16.4 µM (inactive)
[54]
  GI50: 22.4 µM (inactive) and 39.7 µM (inactive)
